Assay results published in patent US12370178B2, “Tinostamustine for use in the treatment of t-cell prolymphocytic leukaemia” (Purdue Pharma L.P., priority 2017, dated 2025).

Assays:
T-PLL = conditions: cited from earlier work
[1] = tested on: T-PLL/NKtert co-cultured cells; assay: T-PLL/NKtert co-culture apoptosis, Annexin-V/7-AAD flow cytometry; format: cell-based, human; conditions: 48 hours; for overcoming NKtert associated protection of co-cultured T-PLL cells: 0.1, 1 or 10 μM
Description: For co-culture experiments human bone marrow stromal cells (BMSC) NKtert cells (RIKEN BRC, Japan) were seeded at concentrations of 1.5×10^4 cells/well (96 well plate) and incubated at 37° C. in 5% CO2. After 24 hours, NKtert cells at approximately 60-80% confluency were treated with 0.02 mg/mL Mitomycin C for 3 hours in […], and then washed twice with PBS (Life Technologies). After another 24 hours, 4×10^5 T-PLL cells were added per well (with and without feeder cell support) and treated for 48 hours with the indicated compounds.
Referring to FIG. 3b, the control sample Ø on the left hand graph is normalised to 1 for normal T-PLL cells.

NKtert cells = assay: NKtert bone marrow stromal cell viability, MTT assay; conditions: 0.1, 1, 5 or 10 μM, 48 hours
Description: Cells were cultured in a HERAcell incubator (Thermo Scientific Heraeus) at 37° C. and 5% CO2 with 90% humidity. CD4+ mature T-cell leukemia HH cells were originally isolated from a patient with Sézary Syndrome (Starkebaum et al., 1991). NKtert (human bone marrow stromal cells [BMSC]) were purchased from RIKEN Cell Bank in 2011. Only cells derived from the original cell stock as purchased, and which had been propagated for 2 to 3 passages before long-term storage in liquid nitrogen, were used. Cell cultures were terminated after the 10th passage (4 to 6 weeks of being in culture). Cells were authenticated following thawing by evaluation of characteristic growth behaviour and by flow cytometry. Cells were routinely tested for the presence of mycoplasma, using standard PCR protocols (primers: for1: 5′-acaccatgggagytggtaat-3′, (SEQ ID No; 1) rev1: 5′-cttcwtcgattycagacccaaggcat-3 (SEQ ID NO: 2)′, for2: 5′-gtgsggmtggatcacctcct-3 (SEQ ID NO: 3)′, rev2: 5′-gcatccaccawawacyctt-3′ (SEQ ID NO: 4)).
Consequently, the effect on cell viability of NKtert bone marrow stromal cells (BMSC) feeders cells alone was also investigated. Cells were treated with either bendamustine, vorinostat, an equimolar combination of bendamustine and vorinostat, or EDO-S101, at either 0.1, 1, 5 or 10 μM concentrations, incubated for 48 hours, and cell viability assessed using MTT assays (FIG. 3d).

HH cells = assay: HH cell viability, Annexin-V/7-AAD flow cytometry; format: cell-based, human; conditions: 48 hours treatment
Description: The alkylating agent bendamustine (MundiPharma) was dissolved in methanol.
Human primary T-PLL cells are unsuitable for cultivation under standard laboratory cell culture conditions, in part, due to their high levels of genomic heterogeneity and variable phenotypes. HH cells are derived from a highly chemotherapy resistant cutaneous lymphoma, and are suitable for cultivation under laboratory conditions. […] HH cells were therefore selected for the in vitro validation of EDO-S101.
To evaluate the cytotoxicity of EDO-S101 in comparison to bendamustine and vorinostat (SAHA), HH cells were treated with either EDO-S101, bendamustine, vorinostat or an equimolar bendamustine/vorinostat combination over a period 48 hours. Cells were treated with either 0.1 μM, 1 μM, 2.5 μM, 5 μM or 10 μM solutions of the indicated compounds (FIG. 1a).
Annexin-V specifically targets and identifies apoptotic cells. 7-AAD is a marker of late stage apoptotic, or necrotic cells. The number of Annexin-V and 7-AAD negative cells was counted for each sample.

CD2-MTCP1 cells = assay: CD2-MTCP1p13 leukaemia transfer model in mice; format: in vivo; conditions: for increase in leukemic blood leukocyte (WBC) count: Day 14 vs Day 9 post-transplantation, compared to control and fludarabine; for average post-mortem spleen weight: day 22 post-transplantation, compared to fludarabine or control
Excerpt: DBA2×C57B6JF1 mice were used as recipients in all experiments. Transplantable leukaemia/lymphoma cells derived from CD2-MTCP1p13 tg mice (Gritti et al, Blood 1998, 92, 268-73; blood, spleen, and bone marrow) were intraperitoneally injected into background-matched mice (to facilitate the generation of uniform cohorts). 1×10^7 cells from CD2-MTCP1p13 mice were intraperitoneally injected into syngeneic recipients (n=26). Starting on day 10 post-transplantation, mice with a homogeneous distribution of leukemic blood leukocytes (WBC) were selected and randomly assigned into four treatment groups. Each group was then treated with either vehicle control (DMSO), fludarabine (34 mg/kg days 10, 15, 17, 21), bendamustine (day 10 at 60 mg/kg, days 15, 17, 21 at 20 mg/kg), and EDO-S101 (day 10 at 50 mg/kg, days 15, 17, 21 at 20 mg/kg) on the indicated days at the indicated doses.
Mice were injected with leukaemia cells derived from CD2-MTCP1 mice, as previously described (FIG. 4a).
CD2-MTCP1 cells are an aggressive, transplantable subline and are suitable for in vivo analysis as a T-PLL like model. […] Each group was intravenously administered either fludarabine (34 mg/kg), bendamustine (Day 10, 60 mg/kg; Day 15-21, 20 mg/kg) or EDO-S101 (Day 10, 50 mg/kg; Day 15-21, 20 mg/kg) at the indicated doses on Day 10, Day 15, Day 17, […] Day 21 post-transplantation. Samples of blood were taken at regular intervals (Day 9 and Day 14 post-transplantation), and the mice sacrificed at 22 days post-transplantation (FIG. 4a).
The blood samples taken were analysed for leukemic blood leukocyte levels (WBC), and the average cell count in each group determined.
Following sacrifice of the mice on day 22 post-transplantation, the post-mortem spleen weights of each mouse were determined (FIG. 4c). The reduced average spleen weight in mouse cohorts treated with bendamustine or EDO-S101, compared to cohorts treated with fludarabine or a control, corroborate the findings previously discussed in FIG. 4b. Tumour manifestation was therefore shown to be less advanced in cohorts treated with EDO-S101 or single-agent bendamustine, compared to fludarabine treated or control cohorts.

[2] = tested on: leukaemia/lymphoma cells derived from ΔJAK1 mice; assay: ΔJAK1 mature T-cell lymphoma transfer model in mice; format: in vivo; conditions: for mean survival: 18 mg/kg i.v. on Day 7, 10, 13, 17, 22
Description: Transplantable leukaemia/lymphoma cells derived from ΔJAK1 mice (Heinrich et al, Mol. Ther. 2013, 21, 1160-8; nodal/spleen mature T-cell lymphoma based on insertional mutagenesis activating JAK1) were intravenously injected into background-matched mice (to facilitate the generation of uniform cohorts). 2.5×10^6 cells were transplanted intravenously into Rag1-deficient mice. […] Each treatment group was then treated with 18 mg/kg of either bendamustine, fludarabine, EDO-S101, or with vehicle control on days 7, 10, 13, 17, 22 (DMSO).
Mice were injected with leukaemia/lymphoma cells derived from ΔJAK1 mice, as previously described (FIG. 5). ΔJAK1 is a model for mature T-cell lymphoma. Mice were divided into four groups at random post-transplantation. Each group was intravenously administered either fludarabine (18 mg/kg), bendamustine (18 mg/kg) or EDO-S101 (18 mg/kg) at the indicated doses on Day 7, Day 10, Day 13, Day 17 and Day 22. The percentage survival of each cohort was plotted as a function of time (FIG. 5).

[3] = tested on: primary human T-PLL cells; assay: cells; conditions: 48 h, read-out: LC50
Description: (§2) RPMI-1640 medium (Sigma-Aldrich) supplemented with 1% L-Glutamine (200 mM; Sigma-Aldrich), 10% fetal bovine serum (FBS) (Sigma-Aldrich) and Penicillin/Streptomycin (100 U/0.1M; PAA) was used for in-vitro experimentation on suspension cultures of primary T-PLL cells, healthy CD3+ T cells, HH cells, and in co-culture experiments with NKtert cells. Cell suspensions were maintained at a density of 1.0×10^6 cells/mL (primary T-PLL cells) and 2.5×10^5 cells/mL (HH cells) for all cell culture experiments.
(§3) EDO-S101 (EDO MundiPharma), and vorinostat (SAHA; SML0061-5 mg, Sigma-Aldrich) were dissolved in DMSO. […] Cells were treated with each compound (or compounds) at the indicated concentrations and times. Dosing was based on published ranges and IC50/LD50 titrations. Cell apoptosis was determined using dual staining for Annexin-V (AnxV) and 7AAD via flow cytometry.
(§4) To further evaluate apoptosis in cells treated with EDO-S101, primary human T-PLL cells were treated with either vorinostat, bendamustine, EDO-S101, or an equimolar combination of vorinostat and bendamustine, at 0.01 μM, 0.1 μM, 1 μM, 5 μM or 10 μM concentrations, and incubated for 48 hours. Following treatment, cell death was evaluated by staining cells with the apoptosis markers Annexin-V and 7-AAD, and the number of apoptotic cells quantified by flow cytometry. Each experiment was repeated for the indicated number of times, and the average number of apoptosis negative cells plotted and normalised relative to an untreated control sample. A dose response curve (FIG. 3a) for each treatment was subsequently plotted, and the LD50 (median lethal dose) of each treatment determined.
(§5) To evaluate the protections conferred by NKtert cells to primary human T-PLL cells, NKtert cells and T-PLL cells were co-cultured for treatment with EDO-S101. Primary T-PLL cells with (FIG. 3b) and without (FIG. 3c) co-cultures of NKtert cells were treated with increasing concentrations (0.1, 1, or 10 μM) of vorinostat, bendamustine, an equimolar combination of vorinostat and bendamustine, or EDO-S101, and incubated for 48 hours.
(§6) Following treatment, cell death was evaluated by staining cells with the apoptosis markers Annexin-V and 7-AAD, and the number of apoptotic cells quantified by flow cytometry. Each experiment was repeated for the indicated number of times, and the average number of apoptosis negative cells plotted as a ratio relative to an untreated control sample (FIG. 3b, FIG. 3c).

T-PLL cells = assay: Western blot analysis of patient T-PLL samples; format: cell-based, human; conditions: 1 μM, 36 hours
Description: FISH analysis used standard protocols (Vysis, Abbott).
T-PLL cells were cultured in suspension, and treated with either bendamustine (1 μM), vorinostat (1 μM), EDO-S101 (1 μM) or an equimolar combination of vorinostat/bendamustine (1 μM) for 36 hours at the indicated concentrations. After this time, the cells were harvested and lysed, the cell lysate sonicated, centrifuged to remove any cellular debris, and the supernatant collected. The protein concentration of each cell lysate solution (the supernatant) was determined and the western blot performed using standard methods.
The antibodies used were acHistone 3 (Sigma Aldrich), phospho-ATM Serine1981 (Sigma Aldrich), ATM (Sigma Aldrich), phospho-KAP-1 Serine824 (Sigma Aldrich), KAP-1 (Sigma Aldrich), phosphor-p53 Serine15 (Sigma Aldrich), acetyl-p53 (Sigma Aldrich), p53 (Sigma Aldrich), PARP (Sigma Aldrich), cleaved-PARP (Sigma Aldrich), and β-Actin (Sigma Aldrich).
After this time, the cells were harvested, lysed and protein expression levels determined by western blot analysis.
Staining for β-Actin was used as a loading control for each western blot ran (rows a to k, and rows l to o respectively).

[4] = Healthy CD3+ T-cell cytotoxicity; format: cell-based, human; conditions: human, healthy CD3+ T-cells, suspension culture; read-out: LC50 (the source's name)
Excerpt: (§1) Healthy CD3+ T-cells were isolated from healthy human donors.

healthy CD3+ T-cells = assay: Healthy CD3+ T-cell cytotoxicity; format: cell-based, human; conditions: selectivity T-PLL over healthy T-cells
Excerpt: as §1

[5] = tested on: primary human T-PLL cells
Description: as §2, §3, §4, §5, §6

[6] = vs bendamustine, vorinostat or combination

Compound	overcoming NKtert associated protection of co-cultured T-PLL cells [1]	reduction in viability of NKtert cells (NKtert cells)	LD50 (median lethal dose) (HH cells) [µM]	increase in leukemic blood leukocyte (WBC) count (CD2-MTCP1 cells)	average post-mortem spleen weight (CD2-MTCP1 cells)	mean survival [2] [days]	CC50 [3] [µM]	also measured
Alemtuzumab: monoclonal anti-CD52 antibody								overall response rates (T-PLL; T-PLL patients): 51-95%; median survival (T-PLL; patients achieving a complete response): 15-19 months
Cn1c(CCCC(=O)O)nc2cc(N(CCCl)CCCl)ccc21 [bendamustine, reference compound]	not as effective as EDO-S101	did not have a pronounced concentration dependent effect	8.0	significantly delayed	reduced	18	7.3	
Nc1nc(F)nc2c1ncn2[C@@H]1O[C@H](CO)[C@@H](O)[C@@H]1O [fludarabine, reference compound]						19		
Cn1c(CCCCCCC(=O)NO)nc2cc(N(CCCl)CCCl)ccc21 [EDO-S101, 7-(5-(bis(2-chloroethyl)amino)-1-methyl-1H-benzo[d]imidazol-2-yl)-N-hydroxyheptanamide]	overcame the protection conferred by the NKtert cells	largely comparable	1.5	significantly delayed	reduced	26	1	accumulation of acetyl-p53 (T-PLL cells; [6]): greatest accumulation; accumulation of p-p53 (T-PLL cells; [6]): greatest accumulation; cleaved PARP (cPARP) (T-PLL cells; [6]): greatest increase; levels of pATM (T-PLL cells; [6]): largest increase; levels of pKAP1 (T-PLL cells; [6]): largest increase; levels of γH2AX (T-PLL cells; [6]): largest increase; acetylation of histone3 (acHistone3) (T-PLL cells; vs vorinostat or vorinostat + bendamustine): largest increase; CC50 [4]: 4.4 µM; fold more potent against T-PLL cells compared to healthy CD3+ T-cells (healthy CD3+ T-cells): approximately 4 fold; approximate cell death count ([1]; co-cultured T-PLL/NKtert cells, 10 μM): greater than 95%; fold increase in potency against T-PLL cells compared to combination of vorinostat and bendamustine ([5]; LC50 1.0 μM vs 4.4 μM): ~4 fold; approximate cell death count ([5]; T-PLL cells monoculture, 10 μM, 48 hours): greater than 95%; increase in average survival time compared to bendamustine or fludarabine ([2]; 18 mg/kg i.v.): ≤ 8 days
O=C(CCCCCCC(=O)Nc1ccccc1)NO [vorinostat]	not as effective as EDO-S101		2.7				20.4	
